From patent US20080069795A1, “Amelioration of Drug-Induced Toxicity” (The John Hopkins University, priority 2004, published 2008)

Tests used:
[1] = system: IL-1β, KC, IFN-γ and TNF-α in the mouse kidney; assay: Kidney cytokine protein array after cisplatin; type: in vivo
Experimental: (§1) Cisplatin (cis-diammineplatinum II dichloride, Sigma-Aldrich, St.Louis, Mo.) was dissolved in 0.9% of saline at a concentration of 1 mg/ml. Mice were given a single i.p. injection either with cisplatin (40 mg/kg body weight) or with equal volume of saline. […] For kidney T cell immunohistochemical staining, three wild type mice in each group were sacrificed at 1 hr, 6 hr, 12 hr, 24 hr or 72 hr after cisplatin injection. All nu/nu or knockout mice and their littermates were sacrificed at 24 hr or 72 hr after the cisplatin administration for histology or for kidney cytokine array. All collected mice kidneys were either fixed in 10% buffered formalin for histology/immunohistochemistry, or snap frozen with liquid nitrogen for tissue cytokine array.
In order to examine pro-inflammatory molecules generated by cisplatin, protein levels of IL-1β, IFN-γ, TNF-α and KC was measured in the mice kidney by using Bio-Rad Bio-Plex™ multiple cytokines array technique (Bio-Rad Laboratories Inc., Hercules, Calif.) described elsewhere in depth (19) with a simplified small template containing only above four cytokine/chemokines. Briefly, snap frozen kidney tissues were homogenized in a kit-attached cell-lysis buffer, and the homogenates were centrifuged at 12,000 rpm for 15 min at 4° C. Total protein concentration in each supernatant was determined by using a Bio-Rad Protein Assay I(it, and was adjusted to 500 μg/ml with the cell lysis buffer. Each sample was first incubated with a mixture of all types of micro-beads for 90 min at room temperature (RT) followed by an incubation with biotinylated detection antibodies for 30 min and then with a strepavidin-coupled phycoerythrin for 10 min (RT). Finally, the samples were subjected to a flow cytometric system. All acquired data was analyzed using Bio-Plex Manager™ 3.0 software (Bio-Rad) and corrected by total protein concentration (pg/mg protein).

[2] = system: mice kidneys; assay: Histological examination, semi-quantitative renal tubular injury score after cisplatin; type: in vivo, mouse; settings: 72 hr after cisplatin 40 mg/kg, scale 0-4
Experimental: as §1
Formalin-fixed paraffin-embedded sections of mice kidneys tissues were cut and stained with hematoxylin and eosin (H&E). Renal tubular injury was assessed using a semi-quantitative scale. A pathologist blinded to the experiments scored the degrees of tubular injury. The magnitude of tubular epithelial cell loss, necrosis, intra-tubular debris and tubular cast formation was scored into six levels based on the percentage of affected tubules in a high power field (HPF) under light microscope. (0: none; 0.5: <10%; 1: 10 to 25%; 2: 25 to 50%; 3: 50 to 75%; 4: >75%).

[3] = system: CD3 positive cells in mice kidney; assay: Immunohistochemical staining of T cells (CD3) in post cisplatin kidneys; type: in vivo, mouse; settings: wild type mice
Experimental: as §1
In order to evaluate T cell infiltrating into post cisplatin kidneys as a potential mechanism of action, immunohistochemical staining for T cell was performed on formalin-fixed kidney tissue. Briefly, after deparaffinization and rehydration, kidney sections were immersed in 3% hydrogen peroxide methanol for 5 minutes to block endogenous peroxidase. […] All cisplatin kidney sections were examined by a pathologist and a nephrologist in a blinded fashion, and CD3 positive cells were counted in at least 10 cortico-medulary fields.

[4] = system: renal myeloperoxidase (MPO) activity; assay: Kidney myeloperoxidase assay after cisplatin; type: in vivo, mouse; settings: 72 hr after cisplatin
Experimental: Renal myeloperoxidase (MPO) activity was measured as described by Laight et al. (18) in the nu/nu mice and wild type mice at 72 hr after receiving cisplatin to semi-quantify neutrophils and macrophages infiltration. Briefly, kidney tissue was homogenized in a solution containing 0.5% (wt/vol) hexadecyltrimethylammonium bromide dissolved in 50 mM potassium phosphate buffer (pH 6.0) and centrifuged for 30 min at 20,000 g at 4° C. Samples were incubated in a water bath at 60° C. for 2 hr and then centrifuged at 4,000 g for 12 min. The collected supernatant (40 μl) in each sample was incubated with 160 μl of a reaction solution containing 1.6 mM tetramethylbenzidine and 3 mM H2O2 diluted in 80 mM phosphate buffer (pH 5.4) in a 96-well microplate. The rate of change in absorbance at 630 nm over 5 min was measured spectrophotometrically. MPO activity was expressed as absorbance changed per minute per 100 mg of wet tissue.

[5] = system: wild type, nu/nu, CD4-/- and CD8-/- mice; assay: Assessment of renal function (serum creatinine) after cisplatin; type: in vivo, mouse
Experimental: as §1
Blood samples were obtained from mice tails prior to (0 hr) and at 24 hr, 48 hr and 72 hr after cisplatin injection. Serum creatinine was measured as a marker of renal dysfunction by a Roche Cobas Fara automated system (Roche, Nutley, N.J., USA) using a Creatinine 557 kit (Sigma Diagnostics, St. Louis, Mo., USA).

[6] = system: wild type, nu/nu, CD4-/- and CD8-/- mice; assay: Survival of mice after a single i.p. dose of cisplatin; type: in vivo, mouse; settings: for survival rate: cisplatin 40 mg/kg i.p. single dose; for survival rate / survival: 72 hr
Experimental: All animal study protocols have been reviewed and approved by the Animal Care and Use Committee of Johns Hopkins University (IACUC), and all experiments were conducted according to NIH guidelines. T cell deficient athymic male mice (B6.Cg-Foxn1^nu, nu/nu) and their C57BL/6 wild type male littermates (6-8 wks, weighing 20-25 g) were purchased from The Jackson Laboratory (Bar Harbor, Me., USA). The two main defects of T cell deficient mice homozygous for the nu/nu spontaneous mutation (Foxn/nu, formerly Hfh11nu) are the abnormal hair growth and defective development of the thymus. Consequently, homozygous nu/nu mice lack T cells and cell-mediated immunity. Genetically matched wild type male littermates were used as controls and as donors of T cells adoptive transfer. CD4-deficient mice (B6.129S2-Cd4tm1Mak), CD8-deficient mice (B6.129S2-Cd8atm1Mak) and their wild type littermates were also purchased from The Jackson Laboratory. Mice were held under pathogen-free conditions in JHMI animal facility with air conditioning, 14 hr/10 hr of light and dark cycle and were free access to food and water during the experiments.
as §1
Data are expressed as mean±standard error of mean (SEM) and are compared by unpaired, two-tailed Student t tests for single comparison or by ANOVA Post Hoc test for multiple comparison. Kaplan-Meier analysis was used for mice survival analyses. Statistical significance of difference was defined when the P-value was less than 0.05.

[7] = system: patients; settings: after a single dose of cisplatin; cited from earlier work
[8] = wild type mice, 72 hr after cisplatin injection

For N.N.[Cl][Pt][Cl] [cisplatin, cis-diamminedichloroplatinum II], the “expression of pro-inflammatory molecules (IL-1β, KC, TNF-α) in the kidney” value ([1]; nu/nu mice treated with cisplatin compared to wild type mice) was “reduced expression”, the “renal IFN-γ protein levels” value ([1]; wild type and nu/nu mice, any time point (24 hr, 72 hr) after cisplatin) was “no increase” and the “renal IL-1β protein level” value [1, 8] was 53.43±2.61 pg/mg protein. The “renal KC protein level” value [1, 8] was 338.30±27.04 pg/mg protein, the “renal TNF-α protein level” value [1, 8] was 707.40±66.28 pg/mg protein and the “renal tubular injury score” value ([2]; nu/nu mice) was 0.22±0.08. For the same compound, the “renal tubular injury score” value ([2]; wild type mice) was 1.44±0.15, the “CD3 positive cells in the kidney” value ([3]; as early as 1 hr post cisplatin, vs saline) was “markedly increased” and the “time of peak of kidney T cell increase” value ([3]; single dose of cisplatin, declined by 24 hr) was 12 h. The “increase in renal MPO activity” value ([4]; nu/nu mice compared with wild type mice) was “significantly blunted”, the “renal MPO activities” value ([4]; wild type and nu/nu mice, vs individual saline controls) was “significant increase” and the SCr ([5]; CD4-/- mice, 24 hr post cisplatin 40 mg/kg i.p.) was 0.50 ± 0.07 mg/dL. It also gave an SCr ([5]; CD8-/- mice, 24 hr post cisplatin 40 mg/kg i.p.) of 0.67 ± 0.08 mg/dL, a serum creatinine ([5]; nu/nu mice alone, 72 hr after cisplatin 40 mg/kg) of 0.58 ± 0.06 mg/dL and a serum creatinine ([5]; nu/nu mice transferred with T cells, 72 hr after cisplatin 40 mg/kg) of 1.23 ± 0.11 mg/dL. For the same compound, the serum creatinine ([5]; nu/nu mice, 24 hr after cisplatin 40 mg/kg) was 0.60 ± 0.05 mg/dL, the serum creatinine ([5]; nu/nu mice, 48 hr after cisplatin 40 mg/kg) was 0.56 ± 0.05 mg/dL and the serum creatinine ([5]; wild type mice, 24 hr after cisplatin 40 mg/kg (nu/nu study)) was 1.05 ± 0.11 mg/dL. The SCr ([5]; wild type mice, 24 hr post cisplatin 40 mg/kg i.p. (CD4/CD8 study)) was 1.74 ± 0.25 mg/dL, the serum creatinine ([5]; wild type mice, 48 hr after cisplatin 40 mg/kg) was 2.09 ± 0.49 mg/dL and the serum creatinine ([5]; wild type mice, 72 hr after cisplatin 40 mg/kg) was 3.61 ± 0.32 mg/dL. The survival rate ([6]; C57BL/6 wild type littermates of nu/nu mice) was 58%, the survival ([6]; CD4-/- mice, cisplatin 40 mg/kg i.p.) was 100% and the “mice died by 72 hr after cisplatin treatment” value (shortened to “mice died by 72 hr”) ([6]; CD4 deficient mice, cisplatin 40 mg/kg i.p.) was 0/6. For the same compound, the survival ([6]; CD8-/- mice, cisplatin 40 mg/kg i.p.) was 80%, the “mice died by 72 hr” value ([6]; CD8 deficient mice, cisplatin 40 mg/kg i.p.) was 1/6 and the survival rate ([6]; nu/nu (T cell deficient) mice) was 100%. The survival ([6]; nu/nu mice with T cells transfer, cisplatin 40 mg/kg) was 80%, the “mice dead by 72 hr after injection” value ([6]; nu/nu mice, cisplatin 40 mg/kg i.p.) was 0/12 and the survival ([6]; wild type littermates of CD4-/- and CD8-/- mice, cisplatin 40 mg/kg i.p.) was 50%. For the same compound, the “mice died by 72 hr” value ([6]; wild type littermates of CD4/CD8 deficient mice, cisplatin 40 mg/kg i.p.) was 7/12, the “mice dead by 72 hr after injection” value ([6]; wild type littermates of nu/nu mice, cisplatin 40 mg/kg i.p.) was 6/14 and the “patients who developed renal dysfunction” value [7] was 25-30%.
